According to article PMC4057896 (Journal of molecular biology, 2014):
Entries after “also recorded” stand apart in the source; their conditions may differ.

How the values were obtained:
hexon trimer [1] = test: Native MS of hexon-pVIn reconstituted from purified hexon and synthetic pVIn; format: binding, human adenovirus (Ad5 hexon)
hexon trimer [2] = test: Native MS of endogenous hexon-pVIn complexes from heat-disrupted virions; format: binding, human adenovirus (Ad5F35)
hexon trimers = conditions: in vitro; ref [15]; cited from earlier work
[3] = 1:2 hexon:pVIn, pH range 4–9, native MS, triplicate
[4] = 150 mM ammonium acetate pH 5, released fraction

Substance | strength of hexon-pVIn interaction at cytosolic pH (hexon trimer [1]; [3]) | strength of hexon-pVIn interaction at endosomal pH (hexon trimer [1]; [3]) | dissociation of hexon-pVIn towards pH 8 (hexon trimer [1]; 1:2 hexon:pVIn, pVIn 1 µM, hexon trimer 0.5 µM, native MS, 150 mM ammonium acetate, triplicate) | residual endogenous pVIn bound to purified hexons (hexon trimer [1]; hexons isolated from virus-infected cells, no synthetic pVIn added, native MS) | binding of pVIn to hexon trimer at pH 5 (hexon trimer [2]; [4]) | pVIn molecules/hexon trimer at pH 5 (hexon trimer [2]; [4]) | binding of pVIn to hexon trimer at pH 9 (hexon trimer [2]; 150 mM ammonium acetate pH 9, released fraction) | affinity for hexon trimers (hexon trimers)
MEDINFASLAPRHGSRPFMGNWQDIGTSNMSGG [pVIn] | relatively weak | strongest | near-complete dissociation | approximately 3 % of maximum occupancy | nearly complete binding; also recorded: fully retained on hexon trimers | 3 pVIn molecules/hexon trimer | only free hexon trimers were recovered and detected | 
pVI: 250 aa precursor of human adenovirus minor capsid protein VI |  |  |  |  |  |  |  | high affinity; also recorded: nanomolar affinity
